Measured values published in paper PMC8022201, “Non‐canonical metabolic pathways in the malaria parasite detected by isotope‐tracing metabolomics” (Molecular Systems Biology, 2021).

Target: T1, HAD4 (PfHAD4) (Plasmodium falciparum, UniProt Q8III4)
T1 construct: gene PF3D7_1118400
Test: biochemical

T1 sequence (Q8III4 1-306): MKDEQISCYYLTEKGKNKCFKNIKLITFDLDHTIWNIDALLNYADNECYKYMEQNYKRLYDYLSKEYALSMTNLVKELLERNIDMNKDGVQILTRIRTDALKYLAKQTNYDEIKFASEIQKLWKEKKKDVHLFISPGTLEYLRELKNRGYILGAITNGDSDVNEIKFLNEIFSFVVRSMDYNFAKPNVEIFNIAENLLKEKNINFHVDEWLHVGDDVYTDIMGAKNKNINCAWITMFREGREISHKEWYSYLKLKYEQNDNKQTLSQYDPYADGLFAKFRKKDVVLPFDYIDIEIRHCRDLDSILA

SMILES: O=P(O)(O)O [inorganic phosphate]
- IC50: 2100 ± 210 µM
